What was measured:
pancreatectomized dogs = assay: Subcutaneous studies in pancreatectomized (diabetic) dogs: plasma glucose; type: in vivo
Method: (§1) Nine dogs of initially normal body weight were studied in accordance with Institutional Guidelines for animal experiments. Exteriorized, indwelling catheters were placed for intra-portal insulin administration and peripheral venous blood sampling. All were studied initially as normals. Subsequently all were pancreatectomized; five were autografted and the remaining four were treated pharmacologically both with the modified insulins described above in Example 1 and the corresponding unmodified conventional extracted insulins. Small venous blood samples were drawn via the indwelling blood sampling catheter at 30-60 minute intervals for plasma glucose determination in the subcutaneous experiments and at -10,0,3,6,10,20,30,60 minutes in the intravenous experiments. […] All animals were conscious and ambulatory during the studies.
At the conclusion of experimental protocols, it was verified that all nine of the animals were diabetic by extirpating the grafts (from the transplant recipients) or withdrawing insulin therapy (from the pancreatectomized animals).
(§2) Plasma glucose was determined using a glucose analyzer (Beckman Instruments, Fullerton, CA). IRI was assayed using porcine insulin standard and ^125 I porcine insulin tracer (Novo Research Institute, Gentofte, Denmark), antiserum and a dextran-coated charcoal separation technique (Albisser et al, Diabetes 35:97-100, 1986). In the studies using porcine phosphorylated insulin, the above assay was performed as for porcine insulin, but using equimolar standards of phosphorylated insulin. Parallel standard curves were obtained. […] All values were expressed as mean ±SEM unless otherwise indicated.
Subsequent to pancreatectomy the animals were studied repeatedly, now in the post-absorptive, hyperglycemic state of 14-20 mM, because the conventional insulin depot administered the previous day had become depleted.

normal dog = type: in vivo
Method: as §1, §2

Substance: phosphorylated insulin: porcine insulin chemically phosphorylated with POCl3/phosphoric acid in DMF; 3 or 5 negatively charged adducts; about 5-10% unmodified
- early hypoglycemia (pancreatectomized dogs; dog, in vivo, sc): never occurred
- lipo-genesis (fat-like deposits) in the areas of repeated subcutaneous injections (pancreatectomized dogs; dog, in vivo, sc): palpable fat-like deposits
- time euglycemia maintained (pancreatectomized dogs; fasted pancreatectomized dog, starting 14-20 mM, subcutaneous, 30-150 nMol): 2 to 6 h
- glucose lowering effect at larger dose (pancreatectomized dogs; pancreatectomized dog, subcutaneous, 4-fold larger doses): occurred more rapidly and lasted longer
- plasma glucose lowered to (pancreatectomized dogs; pancreatectomized dog, subcutaneous, approximately 4 nMol/kg): 4.5 to 6.0 mM
- plasma glucose with repeated injections (pancreatectomized dogs; pancreatectomized dog, subcutaneous, smaller dosage repeated at 6-8h intervals): maintain plasma glucose in the range normal for postabsorptive dogs
- body weight regained after loss following pancreatectomy (pancreatectomized dogs; pancreatectomized dogs): 1 to 3 kg
- first pass extraction by the liver compared with insulin (normal dog; dog, in vivo): not extracted to the same extent
- hypoglycemic effect (normal dog; normal dog, intra-portal, 2-fold larger dose): without major hypoglycemic effect
- drop in blood glucose (normal dog; normal dog, intra-portal, at 15 minutes): 0.2 mM
- decrease in plasma glucose (normal dog; normal dog, intra-portal, double dosage): about 0.5 mM
